One series concerns the target T1, CYP450 1A2 (Homo sapiens, UniProt P05177).
T1 construct: from tissue; host or cells: human liver microsomes
T1 sequence (P05177 1-516): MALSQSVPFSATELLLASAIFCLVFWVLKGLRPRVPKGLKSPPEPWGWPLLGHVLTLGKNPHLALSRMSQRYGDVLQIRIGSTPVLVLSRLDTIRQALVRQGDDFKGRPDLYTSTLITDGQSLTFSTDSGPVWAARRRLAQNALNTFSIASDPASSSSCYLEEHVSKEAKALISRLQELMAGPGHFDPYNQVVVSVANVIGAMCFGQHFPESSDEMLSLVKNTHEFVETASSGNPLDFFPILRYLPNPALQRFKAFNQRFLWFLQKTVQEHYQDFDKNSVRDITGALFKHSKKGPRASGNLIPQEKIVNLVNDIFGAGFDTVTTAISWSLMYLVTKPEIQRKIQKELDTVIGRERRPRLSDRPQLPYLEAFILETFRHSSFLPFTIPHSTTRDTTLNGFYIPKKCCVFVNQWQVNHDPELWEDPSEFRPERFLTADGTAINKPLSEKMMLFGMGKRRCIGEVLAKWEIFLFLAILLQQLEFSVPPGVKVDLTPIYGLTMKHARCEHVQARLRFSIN
The series is described as follows: CYP enzyme single point inhibition test, human liver microsomes, 1A2. It counts as in vitro ADME. The note with it: single point method. The method, then:
(§1) Using human liver microsomal incubation system, the inhibition of CYP450 enzyme subtypes by compounds was rapidly predicted by single point method.
(§2) 2.5 mM NADPH: 100 mM phosphate buffer was added to 4.165 mg of NADPH (reduced nicotinamide adenine dinucleotide phosphate) to 2 mL. 0.25 mg/mL microsome: 4 mL of 100 mM phosphate buffer was added to 50 μL of 20 mg/mL microsome and mixed well.
(§3) The embodiment compound to be tested was weighed and diluted to 10 mM with DMSO and then diluted to 100 µM with 100 mM phosphate buffer.
(§4) • 1. In a 96-well plate, 40 μL of liver microsomes, 10 μL of substrate, 10 μL of compound to be tested were pre-incubated for 3 min. • 2. 40 μL of NADPH was added. • 3. 300 μL of acetonitrile termination solution containing internal standard was added at 20 min. • 4. Centrifugal injection.

Series [1] can be described thus: Plasma stability, rat plasma. It counts as in vitro ADME. The note with it: rat plasma, 37° C. The essentials:
(§5)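 Compound from a 10 μM working solution in 100 mM phosphate buffer was incubated at 37°C in anticoagulated plasma from each species, with propantheline as positive control. Aliquots taken at 0, 15, 30, 60, 90 and 120 min were quenched in acetonitrile with internal standard. Remaining compound was quantified by LC-MS/MS (positive ESI, MRM).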

Series [2] is described as follows: Plasma stability, human plasma. In kind it is in vitro ADME. The method in brief:
as §5

A further series concerns the target T2, hERG potassium channel (Homo sapiens, UniProt Q12809).
T2 construct: expressed in transfected cells; host or cells: CHO-hERG cells
The experiment in a line: hERG potassium channel inhibitory activity test (Qpatch, CHO-hERG cells). The note with it: highest test concentration 40 μM, read-out: hERG (μM), inhibition at multiple concentrations on hERG current. It counts as cell-based. The method, then: 7.1.1 CHO-hERG cells were cultured in a 175 cm^2 flask, when the cell density reached 60-80%, the culture medium was removed, the cells were washed with 7 mL PBS, and then digested with 3 mL Detachin. 7.1.2 After complete digestion, 7 mL culture medium was added to neutralize, then the mixture was centrifuged, the supernatant was aspirated, and then 5 mL culture medium was added to re-suspend, ensuring 2-5×10^6/mL of cell density.
The process of single cell high impedance sealing and whole cell mode formation were all automatically completed by Qpatch instrument, after obtaining the whole cell recording mode, the cells were clamped at −80 mV, before giving a 5-second +40 mV depolarization stimulus, a 50 millisecond −50 mV prevoltage was given first, and then repolarized to −50 mV for 5 seconds, then returned to −80 mV. This voltage stimulation was applied every 15 seconds and recorded for 2 minutes before giving extracellular fluid recordings for 5 minutes, and then the administration process was started, the compound concentration was given from the lowest test concentration, each test concentration was given for 2.5 minutes, and the positive control compound 3 μM of Cisapride was given after all concentrations were continuously given. At least 3 cells (n≥3) were tested at each concentration.
7.4.1 20 mM of compound mother liquor was diluted with extracellular fluid, 5 μL of 20 mM compound mother liquor was added into 2495 μL of extracellular fluid and diluted 500-fold to 40 μM, and then the final concentration to be tested was obtained by sequential 3-fold serial dilutions in extracellular solution containing 0.2% DMSO. 7.4.2 The highest test concentration was 40 μM, in a total of 6 concentrations of 40, 13.33, 4.44, 1.48, 0.49 and 0.16 μM respectively. 7.4.3 The content of DMSO in the final test concentration was not more than 0.2%, and this concentration of DMSO had no effect on hERG potassium channel.
The experimental data were analyzed by XLFit software. […]

The target in a further series is T3, CYP450 2D6 (Homo sapiens, UniProt P10635).
T3 construct: from tissue; host or cells: human liver microsomes
T3 sequence (P10635 whole entry): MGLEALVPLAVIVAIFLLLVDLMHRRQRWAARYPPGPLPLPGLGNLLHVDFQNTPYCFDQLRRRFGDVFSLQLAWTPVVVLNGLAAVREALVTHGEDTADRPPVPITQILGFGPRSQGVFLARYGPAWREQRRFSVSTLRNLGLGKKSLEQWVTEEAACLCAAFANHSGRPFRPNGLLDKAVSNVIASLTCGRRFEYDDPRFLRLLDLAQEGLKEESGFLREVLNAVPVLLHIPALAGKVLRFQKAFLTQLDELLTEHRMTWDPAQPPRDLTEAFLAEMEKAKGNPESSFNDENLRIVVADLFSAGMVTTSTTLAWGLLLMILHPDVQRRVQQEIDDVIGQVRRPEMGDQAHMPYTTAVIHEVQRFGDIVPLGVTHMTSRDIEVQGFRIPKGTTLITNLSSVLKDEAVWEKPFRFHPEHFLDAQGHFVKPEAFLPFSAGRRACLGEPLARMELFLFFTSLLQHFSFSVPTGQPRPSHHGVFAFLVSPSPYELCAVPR
The experiment in a line: CYP enzyme single point inhibition test, human liver microsomes, 2D6. In kind it is in vitro ADME. The note with it: single point method. The method, then:
as §1, §2, §3, §4

Some results are limits rather than exact numbers.

Results on two compounds are retold here after patent publication US20240325394A1, “SALT AND CRYSTAL FORM OF NITROGEN-CONTAINING HETEROCYCLIC DERIVATIVE, PREPARATION METHOD THEREFOR AND APPLICATION THEREOF” (SHANGHAI HANSOH BIOMEDICAL CO., LTD., priority 2020, published 2024).

T2 sequence (Q12809 whole entry): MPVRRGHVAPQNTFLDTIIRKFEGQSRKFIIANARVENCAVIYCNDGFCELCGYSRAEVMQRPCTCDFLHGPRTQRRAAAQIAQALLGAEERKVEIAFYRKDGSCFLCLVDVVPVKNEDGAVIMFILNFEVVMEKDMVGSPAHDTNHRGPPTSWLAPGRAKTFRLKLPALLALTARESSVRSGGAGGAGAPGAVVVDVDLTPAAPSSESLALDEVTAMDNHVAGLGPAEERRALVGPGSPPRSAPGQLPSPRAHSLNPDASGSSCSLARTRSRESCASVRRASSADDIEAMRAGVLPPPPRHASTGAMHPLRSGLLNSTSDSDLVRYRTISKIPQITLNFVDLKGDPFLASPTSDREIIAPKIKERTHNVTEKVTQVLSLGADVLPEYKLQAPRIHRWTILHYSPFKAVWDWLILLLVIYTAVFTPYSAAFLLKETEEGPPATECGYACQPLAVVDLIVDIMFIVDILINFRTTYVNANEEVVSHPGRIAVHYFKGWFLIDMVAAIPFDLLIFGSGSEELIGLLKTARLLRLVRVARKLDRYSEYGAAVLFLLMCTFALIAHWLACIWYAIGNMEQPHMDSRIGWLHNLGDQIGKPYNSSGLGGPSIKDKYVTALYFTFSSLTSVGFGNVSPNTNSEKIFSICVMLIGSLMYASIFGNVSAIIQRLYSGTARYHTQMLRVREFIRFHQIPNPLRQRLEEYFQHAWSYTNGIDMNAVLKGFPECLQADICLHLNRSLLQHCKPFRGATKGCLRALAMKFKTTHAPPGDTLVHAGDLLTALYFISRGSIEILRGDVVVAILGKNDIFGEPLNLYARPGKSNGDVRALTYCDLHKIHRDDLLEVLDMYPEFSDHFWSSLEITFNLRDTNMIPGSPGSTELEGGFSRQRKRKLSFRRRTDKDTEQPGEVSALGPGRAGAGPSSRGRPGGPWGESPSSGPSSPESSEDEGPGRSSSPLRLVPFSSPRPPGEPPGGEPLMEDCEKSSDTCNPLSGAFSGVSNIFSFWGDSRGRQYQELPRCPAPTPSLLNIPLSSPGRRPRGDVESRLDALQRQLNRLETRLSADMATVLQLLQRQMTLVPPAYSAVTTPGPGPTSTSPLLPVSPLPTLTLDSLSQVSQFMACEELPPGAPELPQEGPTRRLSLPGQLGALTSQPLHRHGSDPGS

`C=CC(=O)N1C[C@H](C)N(c2nc(=O)n(-c3c(SC)ccnc3C(C)C)c3nc(-c4c(N)ccc(Cl)c4F)c(Cl)cc23)C[C@H]1C` (atropisomer, axis not shown) [Embodiment 13-1, P-4-((2S,5R)-4-Acryloyl-2,5-dimethylpiperazin-1-yl)-7-(6-amino-3-chloro-2-fluorophenyl)-6-chloro-1-(2-isopropyl-4-(methylthio)pyridin-3-yl)pyrido[2,3-d]pyrimidin-2(1H)-one] came in with an IC50 against CYP450 1A2 of 66.7 µM. In series [1], the “Residual rate (%) 0 min” value worked out at 100.00%, the “Residual rate (%) 15 min” value is recorded as 95.57%, the “Residual rate (%) 30 min” value worked out at 96.73% and the “Residual rate (%) 60 min” value amounted to 93.97%. Moreover, the “Residual rate (%) 120 min” value in series [1] worked out at 91.93%. In addition, in series [2] (human, 0.5 μM), the “Residual rate (%) 0 min” value was found to be 100.00%, the “Residual rate (%) 15 min” value was 102.34%, the “Residual rate (%) 30 min” value was 100.28% and the “Residual rate (%) 60 min” value was determined as 90.27%. Also, the “Residual rate (%) 120 min” value in series [2] (human, 0.5 μM) was determined as 87.22%. In addition, on hERG potassium channel, the IC50 was more than 30 µM. The same compound registered an IC50 against CYP450 2D6 of 21.2 µM.

For “P-4-((2S,5R)-4-acryloyl-2,5-dimethylpiperazin-1-yl)-6-fluoro-7-(2-fluoro-6-hydroxyphenyl)-1-(2-isopropyl-4-(methylthio)pyridin-3-yl)pyrido[2,3-d]pyrimidin-2(1H)-one [Embodiment 2-1]”, the IC50 against CYP450 1A2 was more than 100 µM. In series [1], the “Residual rate (%) 0 min” value turned out to be 100.00%, the “Residual rate (%) 15 min” value is on record as 99.04%, the “Residual rate (%) 30 min” value was determined as 101.03% and the “Residual rate (%) 60 min” value is 97.16%. In addition, the “Residual rate (%) 120 min” value in series [1] worked out at 84.63%. For the same compound, in series [2] (human plasma, 37° C.), the “Residual rate (%) 0 min” value was 100.00%, the “Residual rate (%) 15 min” value is given as 97.39%, the “Residual rate (%) 30 min” value was 98.79% and the “Residual rate (%) 60 min” value is 94.50%. Further, the “Residual rate (%) 120 min” value in series [2] (human plasma, 37° C.) was found to be 87.91%. The IC50 at hERG potassium channel is more than 30 µM. Moreover, the IC50 against CYP450 2D6 was more than 100 µM.
